Experimental data taken from PMC10682951, “Structure-function and rational design of a spider toxin Ssp1a at human voltage-gated sodium channel subtypes” (Frontiers in Pharmacology, 2023).

Key:
Format in all cases: cell-based
hNaV1.2 = target: T1, hNaV1.2 (Homo sapiens, UniProt Q99250); assay: Automated whole-cell patch-clamp (QPatch 16X), hNaV1.2; details: HEK293 cells expressing hNaV1.2 + β1 subunit; QPatch 16X; holding −80 mV, step to 0 mV; peptide incubated 2 min; 0.1% BSA; mean, SEM and n (2-7)
T1 construct: host or cells: HEK293
T1 sequence (Q07699 19-218): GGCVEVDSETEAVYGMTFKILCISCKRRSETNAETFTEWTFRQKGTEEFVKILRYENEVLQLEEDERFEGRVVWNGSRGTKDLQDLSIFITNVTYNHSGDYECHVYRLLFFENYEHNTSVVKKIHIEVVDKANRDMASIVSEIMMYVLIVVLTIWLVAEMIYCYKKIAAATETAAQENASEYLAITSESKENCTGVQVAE
T1 sequence (Q99250 whole entry): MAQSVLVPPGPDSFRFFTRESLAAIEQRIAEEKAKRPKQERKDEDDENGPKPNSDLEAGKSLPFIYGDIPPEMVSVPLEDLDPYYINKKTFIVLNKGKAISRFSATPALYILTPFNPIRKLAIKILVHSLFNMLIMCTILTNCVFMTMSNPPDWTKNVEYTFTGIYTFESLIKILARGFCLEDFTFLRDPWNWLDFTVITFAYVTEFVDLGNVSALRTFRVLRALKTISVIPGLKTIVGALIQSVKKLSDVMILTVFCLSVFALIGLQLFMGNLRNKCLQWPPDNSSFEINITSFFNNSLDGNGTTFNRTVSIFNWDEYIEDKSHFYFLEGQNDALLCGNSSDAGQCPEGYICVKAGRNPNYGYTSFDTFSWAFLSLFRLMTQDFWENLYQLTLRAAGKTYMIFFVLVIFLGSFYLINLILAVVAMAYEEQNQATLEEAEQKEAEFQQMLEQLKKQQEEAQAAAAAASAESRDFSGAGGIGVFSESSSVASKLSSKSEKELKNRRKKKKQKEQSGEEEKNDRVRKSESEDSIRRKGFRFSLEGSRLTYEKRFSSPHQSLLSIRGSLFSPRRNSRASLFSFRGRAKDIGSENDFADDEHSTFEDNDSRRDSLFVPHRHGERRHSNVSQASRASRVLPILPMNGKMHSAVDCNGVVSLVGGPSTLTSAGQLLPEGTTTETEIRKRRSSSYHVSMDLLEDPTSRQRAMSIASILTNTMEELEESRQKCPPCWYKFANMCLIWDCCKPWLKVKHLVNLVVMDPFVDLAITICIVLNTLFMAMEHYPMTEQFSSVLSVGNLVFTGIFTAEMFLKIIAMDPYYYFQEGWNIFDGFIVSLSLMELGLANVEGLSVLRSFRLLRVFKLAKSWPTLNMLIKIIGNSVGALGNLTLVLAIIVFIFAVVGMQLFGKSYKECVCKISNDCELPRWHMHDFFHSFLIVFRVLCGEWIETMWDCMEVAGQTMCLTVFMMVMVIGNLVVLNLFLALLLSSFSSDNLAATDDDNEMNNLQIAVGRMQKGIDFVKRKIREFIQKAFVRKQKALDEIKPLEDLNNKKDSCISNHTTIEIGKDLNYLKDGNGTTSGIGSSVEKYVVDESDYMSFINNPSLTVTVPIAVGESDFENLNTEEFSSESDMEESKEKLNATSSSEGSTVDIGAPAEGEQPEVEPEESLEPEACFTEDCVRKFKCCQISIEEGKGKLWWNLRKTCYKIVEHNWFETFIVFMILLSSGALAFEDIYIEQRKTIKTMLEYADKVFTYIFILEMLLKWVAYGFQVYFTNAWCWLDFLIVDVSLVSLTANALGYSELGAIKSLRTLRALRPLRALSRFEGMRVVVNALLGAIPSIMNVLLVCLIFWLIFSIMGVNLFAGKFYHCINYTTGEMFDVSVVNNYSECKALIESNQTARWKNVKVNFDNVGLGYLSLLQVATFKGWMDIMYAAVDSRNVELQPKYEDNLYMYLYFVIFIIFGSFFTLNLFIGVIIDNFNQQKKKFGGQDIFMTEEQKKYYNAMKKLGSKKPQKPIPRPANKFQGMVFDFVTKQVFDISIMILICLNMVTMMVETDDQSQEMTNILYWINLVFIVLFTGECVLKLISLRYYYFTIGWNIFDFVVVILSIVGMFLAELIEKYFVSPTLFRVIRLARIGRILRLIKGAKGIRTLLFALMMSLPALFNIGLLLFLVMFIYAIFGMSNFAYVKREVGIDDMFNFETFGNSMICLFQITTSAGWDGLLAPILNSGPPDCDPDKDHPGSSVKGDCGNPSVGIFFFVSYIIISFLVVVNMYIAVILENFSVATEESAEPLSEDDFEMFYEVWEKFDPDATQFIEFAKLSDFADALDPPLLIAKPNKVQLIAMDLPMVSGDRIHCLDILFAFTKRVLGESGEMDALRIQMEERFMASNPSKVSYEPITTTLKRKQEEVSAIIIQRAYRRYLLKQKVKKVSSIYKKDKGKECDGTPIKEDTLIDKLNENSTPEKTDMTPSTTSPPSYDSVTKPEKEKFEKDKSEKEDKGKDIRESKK
How it was run: (§1)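 HEK293 cells stably expressing the channel (human subtypes with β1 subunit), held at −80 mV; 2 min peptide pre-incubation, then 20 ms steps to 0 mV after a 200 ms −120 mV conditioning pulse. Extracellular pH 7.3 with 20 mM TEA-Cl, CsF-based pipette solution, 0.1% BSA; IC50 from four-parameter Hill fit.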

hNaV1.3 = target: T2, hNaV1.3 (Homo sapiens, UniProt Q9NY46); assay: Automated whole-cell patch-clamp (QPatch 16X), hNaV1.3; details: HEK293 cells expressing hNaV1.3 + β1 subunit; QPatch 16X; holding −80 mV, step to 0 mV; peptide incubated 2 min; 0.1% BSA; mean, SEM and n (3-12)
T2 construct: host or cells: HEK293
T2 sequence (Q9NY46 whole entry): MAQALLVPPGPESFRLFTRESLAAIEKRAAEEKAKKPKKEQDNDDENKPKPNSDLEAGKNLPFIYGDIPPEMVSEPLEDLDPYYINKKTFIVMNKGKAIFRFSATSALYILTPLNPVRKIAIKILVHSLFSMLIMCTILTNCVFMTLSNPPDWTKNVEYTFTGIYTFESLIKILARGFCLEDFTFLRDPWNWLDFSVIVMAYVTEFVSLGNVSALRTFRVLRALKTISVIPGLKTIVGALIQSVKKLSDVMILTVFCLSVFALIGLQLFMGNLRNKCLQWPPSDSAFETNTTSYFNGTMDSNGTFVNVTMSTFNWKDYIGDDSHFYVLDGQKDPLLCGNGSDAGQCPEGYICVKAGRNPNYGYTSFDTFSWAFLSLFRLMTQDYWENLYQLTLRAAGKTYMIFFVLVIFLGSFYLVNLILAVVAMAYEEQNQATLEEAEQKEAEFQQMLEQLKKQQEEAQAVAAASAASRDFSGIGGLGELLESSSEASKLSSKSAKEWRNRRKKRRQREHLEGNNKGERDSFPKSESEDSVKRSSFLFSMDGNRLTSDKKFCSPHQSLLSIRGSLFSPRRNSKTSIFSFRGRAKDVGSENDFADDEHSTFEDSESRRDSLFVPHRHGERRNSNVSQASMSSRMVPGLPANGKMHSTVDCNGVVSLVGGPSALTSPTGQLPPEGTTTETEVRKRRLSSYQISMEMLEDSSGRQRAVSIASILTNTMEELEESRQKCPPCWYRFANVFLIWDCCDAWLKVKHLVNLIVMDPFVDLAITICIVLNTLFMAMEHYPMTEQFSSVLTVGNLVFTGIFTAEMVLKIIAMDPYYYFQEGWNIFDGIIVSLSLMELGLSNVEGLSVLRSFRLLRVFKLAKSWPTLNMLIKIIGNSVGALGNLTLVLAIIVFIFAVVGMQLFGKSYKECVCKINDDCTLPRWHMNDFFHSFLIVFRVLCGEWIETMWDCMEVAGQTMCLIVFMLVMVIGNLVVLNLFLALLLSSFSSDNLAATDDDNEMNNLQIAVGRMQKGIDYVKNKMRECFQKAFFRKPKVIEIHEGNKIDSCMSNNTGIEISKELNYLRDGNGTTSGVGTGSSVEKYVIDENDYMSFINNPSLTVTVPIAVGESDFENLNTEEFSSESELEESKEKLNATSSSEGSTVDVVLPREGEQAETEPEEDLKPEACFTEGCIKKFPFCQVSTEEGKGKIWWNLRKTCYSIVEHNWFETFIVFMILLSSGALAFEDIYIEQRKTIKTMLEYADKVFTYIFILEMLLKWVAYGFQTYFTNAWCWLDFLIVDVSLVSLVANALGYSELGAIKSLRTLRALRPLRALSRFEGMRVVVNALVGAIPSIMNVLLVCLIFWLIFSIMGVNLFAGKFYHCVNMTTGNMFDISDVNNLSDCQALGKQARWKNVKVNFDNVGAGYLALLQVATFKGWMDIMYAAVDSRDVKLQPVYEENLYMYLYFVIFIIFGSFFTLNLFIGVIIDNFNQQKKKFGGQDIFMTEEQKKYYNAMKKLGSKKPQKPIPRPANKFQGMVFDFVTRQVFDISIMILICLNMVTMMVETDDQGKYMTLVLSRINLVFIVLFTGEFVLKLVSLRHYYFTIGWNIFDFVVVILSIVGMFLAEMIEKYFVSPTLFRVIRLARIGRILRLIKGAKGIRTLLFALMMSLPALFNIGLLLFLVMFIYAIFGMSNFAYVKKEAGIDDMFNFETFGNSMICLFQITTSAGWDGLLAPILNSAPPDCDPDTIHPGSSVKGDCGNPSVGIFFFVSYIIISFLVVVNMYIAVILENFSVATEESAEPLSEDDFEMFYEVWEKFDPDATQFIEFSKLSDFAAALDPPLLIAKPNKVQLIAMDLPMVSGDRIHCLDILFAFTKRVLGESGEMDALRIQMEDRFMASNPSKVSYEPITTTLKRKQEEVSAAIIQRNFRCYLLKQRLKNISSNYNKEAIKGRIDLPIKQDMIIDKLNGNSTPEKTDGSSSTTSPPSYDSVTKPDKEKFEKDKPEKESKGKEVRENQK
T2 sequence (Q07699 19-218, further chain): as the sequence (Q07699 19-218) above
How it was run: as §1

hNaV1.7 = target: T3, hNaV1.7 (Homo sapiens, UniProt Q15858); assay: Automated whole-cell patch-clamp (QPatch 16X), hNaV1.7; details: HEK293 cells expressing hNaV1.7 + β1 subunit; QPatch 16X; holding −80 mV, step to 0 mV; peptide incubated 2 min; 0.1% BSA; mean, SEM and n (3-9)
T3 construct: host or cells: HEK293
How it was run: as §1

Row | SMILES | IC50 (hNaV1.2) [nM] | IC50 (hNaV1.3) [nM] | IC50 (hNaV1.7) [nM]
1 | CC(C)C[C@H](NC(=O)[C@H](CC(=O)O)NC(=O)[C@H](Cc1ccc(O)cc1)NC(=O)[C@H](CCCNC(=N)N)NC(=O)[C@@H]1CSSC[C@@H]2NC(=O)[C@H](CCCCN)NC(=O)[C@H](CC(N)=O)NC(=O)[C@H](CC(N)=O)NC(=O)[C@H](CC(N)=O)NC(=O)[C@@H]3CCCN3C(=O)[C@H](CC(=O)O)NC(=O)[C@@H]3CSSC[C@H](NC(=O)[C@H](C(C)C)NC(=O)[C@H](Cc4ccc(O)cc4)NC(=O)CNC(=O)[C@H](CCC(=O)O)NC(=O)[C@H](CSSC[C@H](NC(=O)CNC(=O)CN)C(=O)N[C@@H](CC(C)C)C(=O)NCC(=O)N[C@@H](Cc4c[nH]c5ccccc45)C(=O)N[C@@H](Cc4ccccc4)C(=O)N[C@@H](CO)C(=O)NCC(=O)N3)NC2=O)C(=O)N[C@@H](Cc2c[nH]cn2)C(=O)N[C@@H](Cc2c[nH]c3ccccc23)C(=O)N[C@@H](CCCCN)C(=O)N[C@@H](Cc2ccc(O)cc2)C(=O)N2CCC[C@H]2C(=O)N[C@@H](Cc2c[nH]c3ccccc23)C(=O)N1)C(=O)O [D1G] | 192 | 499 | 307
2 | CC(C)C[C@H](NC(=O)[C@H](CC(=O)O)NC(=O)[C@H](Cc1ccc(O)cc1)NC(=O)[C@H](CCCNC(=N)N)NC(=O)[C@@H]1CSSC[C@@H]2NC(=O)[C@H](CCCCN)NC(=O)[C@H](CC(N)=O)NC(=O)[C@H](CC(N)=O)NC(=O)[C@H](CC(N)=O)NC(=O)[C@@H]3CCCN3C(=O)[C@H](CC(=O)O)NC(=O)[C@@H]3CSSC[C@H](NC(=O)[C@H](C(C)C)NC(=O)[C@H](Cc4ccc(O)cc4)NC(=O)CNC(=O)[C@H](CCC(=O)O)NC(=O)[C@H](CSSC[C@H](NC(=O)[C@H](CC(=O)O)NC(=O)CN)C(=O)N[C@@H](CC(C)C)C(=O)NCC(=O)N[C@@H](Cc4c[nH]c5ccccc45)C(=O)N[C@@H](Cc4ccccc4)C(=O)N[C@@H](CO)C(=O)NCC(=O)N3)NC2=O)C(=O)N[C@@H](Cc2c[nH]cn2)C(=O)N[C@@H](CO)C(=O)N[C@@H](CCCCN)C(=O)N[C@@H](Cc2ccc(O)cc2)C(=O)N2CCC[C@H]2C(=O)N[C@@H](Cc2c[nH]c3ccccc23)C(=O)N1)C(=O)O [W24S] | 1460 | > 3000 | > 3000
3 | CC(C)C[C@H](NC(=O)[C@H](CC(=O)O)NC(=O)[C@H](Cc1ccc(O)cc1)NC(=O)[C@H](CCCNC(=N)N)NC(=O)[C@@H]1CSSC[C@@H]2NC(=O)[C@H](CCCCN)NC(=O)[C@H](CC(N)=O)NC(=O)[C@H](CC(N)=O)NC(=O)[C@H](CC(N)=O)NC(=O)[C@@H]3CCCN3C(=O)[C@H](CC(=O)O)NC(=O)[C@@H]3CSSC[C@H](NC(=O)[C@H](C(C)C)NC(=O)[C@H](Cc4ccc(O)cc4)NC(=O)CNC(=O)[C@H](CCC(=O)O)NC(=O)[C@H](CSSC[C@H](NC(=O)[C@H](CC(=O)O)NC(=O)CN)C(=O)N[C@@H](CC(C)C)C(=O)N[C@@H](CCCNC(=N)N)C(=O)N[C@@H](Cc4c[nH]c5ccccc45)C(=O)N[C@@H](Cc4ccccc4)C(=O)N[C@@H](CO)C(=O)NCC(=O)N3)NC2=O)C(=O)N[C@@H](Cc2c[nH]cn2)C(=O)N[C@@H](Cc2c[nH]c3ccccc23)C(=O)N[C@@H](CCCCN)C(=O)N[C@@H](Cc2ccc(O)cc2)C(=O)N2CCC[C@H]2C(=O)N[C@@H](Cc2c[nH]c3ccccc23)C(=O)N1)C(=O)O [G4R] | 193 | 409 | 201
